What was measured:
Assay in all cases: Northern expression analysis after aphidicolin synchronisation of MM1 (maximum signal = 100%)
Assay type in all cases: cell-based, Arabidopsis thaliana
histone H4 = tested on: histone H4
Description: (§1) was analysed following the expression level of known cell cycle regulated genes. Synchronisation was performed as described in Example 2A, with the exception that two 7-day old cultures of the weekly sub-cultured cell suspension (210 ml each) were combined. 40 ml of combined culture was transferred into 200 ml of fresh MSS-medium in each of 10 separate flasks. After incubation for 24 hrs under conditions as described in Example 1, in the presence of 4.16 μg/ml aphidicolin, cells from 5 pooled flasks were washed through a nylon net (mesh size 47 μm) and washed with 2 litre MSS medium and shaken vigorously to remove the aphidicolin. Cells were transferred into a 50 ml plastic tube, washed again with MSS medium and centrifuged at 2500 rpm for 1 min (1075 rcf). Cells were resuspended and combined with the cells from the other 5 flasks similarly washed in a total volume of 300 ml fresh MSS-medium. 30 ml of this cell suspension was then added to 200 ml fresh MSS-medium in each of 10 separate flasks.
(§2) 1) 25 ml for Northern blot (transferred into 50 ml plastic tube, centrifuged at 2500 rpm for 1 min, the supernatant discarded, and the cell pellet shock-frozen in liquid nitrogen before storing in −80° C. freezer)
(§3) Samples were collected at the time point indicated (time of removal of aphidicolin equals time point 0 hrs) and were analysed for expression of the following genes by Northern blot:
histone H4 (ID/Accession no. ATH4 GB/M17133)
(§4) For each probe the maximum hybridisation signal obtained was defined as 100%.

CycD2 = tested on: CycD2
Description: as §1, §2, §3, §4

CycB1 = tested on: CycB1
Description: as §1, §2, §3, §4

CDK-b2 = tested on: CDK-b2
Description: as §1, §2, §3, §4

[1] = 0 hrs after aphidicolin removal
[2] = 2 hrs after aphidicolin removal
[3] = 4 hrs after aphidicolin removal
[4] = 6 hrs after aphidicolin removal
[5] = 8 hrs after aphidicolin removal
[6] = 10 hrs after aphidicolin removal
[7] = 12 hrs after aphidicolin removal
[8] = 14 hrs after aphidicolin removal
[9] = 16 hrs after aphidicolin removal
[10] = 18 hrs after aphidicolin removal
[11] = 20 hrs after aphidicolin removal
[12] = 22 hrs after aphidicolin removal
[13] = 24 hrs after aphidicolin removal
[14] = 26 hrs after aphidicolin removal
[15] = 28 hrs after aphidicolin removal
[16] = 30 hrs after aphidicolin removal

C[C@@]1(CO)[C@H](O)CC[C@@]2(C)[C@H]1CC[C@H]1C[C@@H]3C[C@@]12CC[C@]3(O)CO [aphidicolin]
histone H4 % (histone H4; [1]): 33.81%
histone H4 Band intensity (histone H4; [1]): 1029
histone H4 % (histone H4; [2]): 100.0%
histone H4 Band intensity (histone H4; [2]): 3046
histone H4 % (histone H4; [3]): 84.73%
histone H4 Band intensity (histone H4; [3]): 2580
histone H4 % (histone H4; [4]): 58.91%
histone H4 Band intensity (histone H4; [4]): 1794
histone H4 % (histone H4; [5]): 32.42%
histone H4 Band intensity (histone H4; [5]): 987
histone H4 % (histone H4; [6]): 38.70%
histone H4 Band intensity (histone H4; [6]): 1178
histone H4 % (histone H4; [7]): 28.53%
histone H4 Band intensity (histone H4; [7]): 868
histone H4 % (histone H4; [8]): 22.81%
histone H4 Band intensity (histone H4; [8]): 694
histone H4 % (histone H4; [9]): 12.75%
histone H4 Band intensity (histone H4; [9]): 388
histone H4 % (histone H4; [10]): 11.26%
histone H4 Band intensity (histone H4; [10]): 343
histone H4 % (histone H4; [11]): 19.43%
histone H4 Band intensity (histone H4; [11]): 591
histone H4 % (histone H4; [12]): 17.55%
histone H4 Band intensity (histone H4; [12]): 534
histone H4 % (histone H4; [13]): 17.77%
histone H4 Band intensity (histone H4; [13]): 541
histone H4 % (histone H4; [14]): 23.04%
histone H4 Band intensity (histone H4; [14]): 701
histone H4 % (histone H4; [15]): 14.35%
histone H4 Band intensity (histone H4; [15]): 437
CycD2 % (CycD2; [1]): 11.06%
CycD2 Band intensity (CycD2; [1]): 588
CycD2 % (CycD2; [2]): 18.49%
CycD2 Band intensity (CycD2; [2]): 984
CycD2 % (CycD2; [3]): 14.53%
CycD2 Band intensity (CycD2; [3]): 773
CycD2 % (CycD2; [4]): 20.73%
CycD2 Band intensity (CycD2; [4]): 1103
CycD2 % (CycD2; [5]): 21.64%
CycD2 Band intensity (CycD2; [5]): 1151
CycD2 % (CycD2; [6]): 32.02%
CycD2 Band intensity (CycD2; [6]): 1704
CycD2 % (CycD2; [7]): 51.04%
CycD2 Band intensity (CycD2; [7]): 2716
CycD2 % (CycD2; [8]): 77.14%
CycD2 Band intensity (CycD2; [8]): 4105
CycD2 % (CycD2; [9]): 66.51%
CycD2 Band intensity (CycD2; [9]): 3539
CycD2 % (CycD2; [10]): 100.0%
CycD2 Band intensity (CycD2; [10]): 5322
CycD2 % (CycD2; [11]): 83.89%
CycD2 Band intensity (CycD2; [11]): 4464
CycD2 % (CycD2; [12]): 46.62%
CycD2 Band intensity (CycD2; [12]): 2481
CycD2 % (CycD2; [13]): 64.44%
CycD2 Band intensity (CycD2; [13]): 3429
CycD2 % (CycD2; [14]): 68.56%
CycD2 Band intensity (CycD2; [14]): 3648
CycD2 % (CycD2; [15]): 69.98%
CycD2 Band intensity (CycD2; [15]): 3724
CycD2 % (CycD2; [16]): 62.66%
CycD2 Band intensity (CycD2; [16]): 3334
cycB1 % (CycB1; [1]): 33.18%
cycB1 Band intensity (CycB1; [1]): 636
cycB1 % (CycB1; [2]): 62.69%
cycB1 Band intensity (CycB1; [2]): 1201
cycB1 % (CycB1; [3]): 47.09%
cycB1 Band intensity (CycB1; [3]): 902
cycB1 % (CycB1; [4]): 59.67%
cycB1 Band intensity (CycB1; [4]): 1143
cycB1 % (CycB1; [5]): 69.42%
cycB1 Band intensity (CycB1; [5]): 1330
cycB1 % (CycB1; [6]): 83.86%
cycB1 Band intensity (CycB1; [6]): 1607
cycB1 % (CycB1; [7]): 89.57%
cycB1 Band intensity (CycB1; [7]): 1717
cycB1 % (CycB1; [8]): 100.0%
cycB1 Band intensity (CycB1; [8]): 1917
cycB1 % (CycB1; [9]): 76.51%
cycB1 Band intensity (CycB1; [9]): 1466
cycB1 % (CycB1; [10]): 90.81%
cycB1 Band intensity (CycB1; [10]): 1740
cycB1 % (CycB1; [11]): 77.04%
cycB1 Band intensity (CycB1; [11]): 1476
cycB1 % (CycB1; [12]): 45.09%
cycB1 Band intensity (CycB1; [12]): 864
cycB1 % (CycB1; [13]): 48.70%
cycB1 Band intensity (CycB1; [13]): 933
cycB1 % (CycB1; [14]): 49.18%
cycB1 Band intensity (CycB1; [14]): 942
cycB1 % (CycB1; [15]): 52.79%
cycB1 Band intensity (CycB1; [15]): 1012
CDK-b2 % (CDK-b2; [1]): 7.78%
CDK-b2 Band intensity (CDK-b2; [1]): 1084
CDK-b2 % (CDK-b2; [2]): 12.90%
CDK-b2 Band intensity (CDK-b2; [2]): 1796
CDK-b2 % (CDK-b2; [3]): 8.22%
CDK-b2 Band intensity (CDK-b2; [3]): 1144
CDK-b2 % (CDK-b2; [4]): 12.09%
CDK-b2 Band intensity (CDK-b2; [4]): 1683
CDK-b2 % (CDK-b2; [5]): 28.47%
CDK-b2 Band intensity (CDK-b2; [5]): 3963
CDK-b2 % (CDK-b2; [6]): 49.90%
CDK-b2 Band intensity (CDK-b2; [6]): 6947
CDK-b2 % (CDK-b2; [7]): 87.45%
CDK-b2 Band intensity (CDK-b2; [7]): 12174
CDK-b2 % (CDK-b2; [8]): 100%
CDK-b2 Band intensity (CDK-b2; [8]): 13921
CDK-b2 % (CDK-b2; [9]): 55.84%
CDK-b2 Band intensity (CDK-b2; [9]): 7774
CDK-b2 % (CDK-b2; [10]): 67.57%
CDK-b2 Band intensity (CDK-b2; [10]): 9407
CDK-b2 % (CDK-b2; [11]): 47.80%
CDK-b2 Band intensity (CDK-b2; [11]): 6654
CDK-b2 % (CDK-b2; [12]): 22.78%
CDK-b2 Band intensity (CDK-b2; [12]): 3172
CDK-b2 % (CDK-b2; [13]): 13.73%
CDK-b2 Band intensity (CDK-b2; [13]): 1912
CDK-b2 % (CDK-b2; [14]): 22.86%
CDK-b2 Band intensity (CDK-b2; [14]): 3183
CDK-b2 % (CDK-b2; [15]): 18.55%
CDK-b2 Band intensity (CDK-b2; [15]): 2583
CDK-b2 % (CDK-b2; [16]): 22.19%
CDK-b2 Band intensity (CDK-b2; [16]): 3089
